{"source": "patent US11484539B2", "about": "“Compounds and their uses for alleviating menopause-associated symptoms” (Estetra SPRL, priority 2018, dated 2022)", "test_system": "post-menopausal women", "experiment": "Weekly frequency of moderate to severe VMS, dose-finding study", "type": "in vivo", "settings": "for Difference with placebo, LS adjusted mean, absolute change in weekly frequency of moderate to severe VMS / Difference with placebo, LS adjusted mean, relative change in weekly frequency of moderate to severe VMS: 10 mg E4 vs placebo; for Differences with placebo (including ineffective doses 2.5 mg and 5 mg), relative change in weekly frequency of moderate to severe VMS, LS adjusted mean / Differences with placebo (including ineffective doses 2.5 mg and 5 mg), relative change in weekly frequency of moderate to severe VMS, p_value: 10.0 mg vs 0 mg; for Relative change in weekly frequency of moderate to severe VMS, LS adjusted mean: analysis with placebo grouped with 2.5 and 5 mg; for LS adjusted mean change from baseline in weekly frequency of moderate to severe VMS / LS adjusted mean relative change (%) from baseline in weekly frequency of moderate to severe VMS: 15 mg E4", "from_the_text": "To determine the Minimum Effective Dose (MED), firstly the selection criteria required that patients presented at least 7 moderate to severe VMS/day or at least 50 moderate to severe VMS/week in the week preceding randomization. Secondly, a placebo group was included in a double-blind fashion. Thirdly, the total patient number was such that statistical significance could be obtained between separate arms of the study. Fourthly, the absolute change from baseline in weekly frequency of moderate to severe VMS was taken into account. An analysis of covariance (ANCOVA) was performed based on the untransformed change in weekly frequency of moderate to severe VMS from baseline. Finally, the change in severity from baseline was evaluated. For this, the Severity Scoring System of VMS was documented by the subjects as follows: • a score of Mild (1) for a sensation of heat without sweating; • a score of Moderate (2) for a sensation of heat with sweating/the subject is able to continue activity; and • a score of Severe (3) for a sensation of heat with sweating/which causes cessation of activity.\nEnrolment was approximately 18 months. Individual subject participation was up to 27 weeks: up to 6 weeks pre-screening and washout, up to 4 weeks screening and run-in period, up to 91 days (13 weeks) of E4/placebo treatment followed by 2 weeks (14 days) of progestin therapy and a Follow up visit 1 week after completion of progestin therapy in non-hysterectomised subjects only.\nTo define the minimum effective dose (MED) of the oral dose of E4 by evaluating changes in frequency and in severity of moderate to severe vasomotor symptoms (VMS).\nThis was a prospective, multicentre, randomised, placebo-controlled, double-blinded, dose-finding study.\nEligible subjects were hysterectomised and non-hysterectomised post-menopausal women aged 40 to 65 years, inclusive, presenting at least 7 moderate to severe hot flushes/day or at least 50 moderate to severe hot flushes/week.\nThe subjects have met all of the following inclusion criteria at the randomization visit. These criteria were assessed during the screening period: • 1. Women aged 40 to 65 years, inclusive, presenting at least 7 moderate to severe hot flushes/day or at least 50 moderate to severe hot flushes/week in the week preceding randomization. • 2. Body Mass Index (BMI) between 18.0 and 35.0 kg/m^2, inclusive. • 3. Post-menopausal status defined as levels of follicle stimulating hormone (FSH) >40 IU/L and: • amenorrhoea for at least 12 consecutive months or, • amenorrhoea for at least 6 months with estradiol (E2)<20 pg/mL or, • at least 6 weeks post-surgical bilateral oophorectomy with or without hysterectomy with a copy of the pathology report or a statement on letterhead from the subject's physician documenting both ovaries were removed is required. • 4. For non-hysterectomised women: intact uterus with bi-layer endometrial thickness […] on TVUS. • 5. Negative pregnancy test. • 6. Good physical and mental health, in the judgement of the Principal Investigator (PI), on the basis of medical, surgical and gynaecological history, physical examination, gynaecological examination, clinical laboratory, and vital signs. • 7. Subject has provided signed and dated written informed consent before admission to the study. • 8. Subject is able to understand and comply with the protocol requirements, instructions, and protocol-stated restrictions. Exclusion Criteria:\nAll treatments (Estetrol, hereinafter, E4, [2.5 mg, 5 mg, 10 mg, 15 mg] capsule) were administered once daily (QD) per os for at least 12 consecutive weeks until the last biological assessments (Day 91 maximum) had been performed.\nIn order to analyse the data recorded in this study, treatment groups have been compared using an ANCOVA (analysis of covariance) with respect to the change in weekly frequency of moderate to severe VMS from baseline to weeks 4 and 12. […]", "key": {"[1]": {"settings": "week 4, ANCOVA with study centre"}, "[2]": {"settings": "week 12, ANCOVA with study centre"}}, "data": [{"smiles": "C[C@]12CC[C@@H]3c4ccc(O)cc4CC[C@H]3[C@@H]1[C@@H](O)[C@@H](O)[C@@H]2O", "note": "[E4, 1,3,5 (10)-estratrien-3,15alpha,16alpha,17beta-tetrol]", "values": [{"measurement": "Mean change from baseline in weekly frequency of moderate to severe VMS", "setting": "10 mg E4 QD per os, week 8", "value": "−44.46"}, {"measurement": "Relative change (% from baseline) in weekly frequency of moderate to severe VMS, mean", "setting": "10 mg E4 QD per os, week 8", "value": "−68", "unit": "%"}, {"measurement": "Mean change from baseline in weekly frequency of moderate to severe VMS", "setting": "10 mg E4 QD per os, week 9", "value": "−45.19"}, {"measurement": "Relative change (% from baseline) in weekly frequency of moderate to severe VMS, mean", "setting": "10 mg E4 QD per os, week 9", "value": "−69", "unit": "%"}, {"measurement": "Mean change from baseline in weekly frequency of moderate to severe VMS", "setting": "10 mg E4 QD per os, week 10", "value": "−45.93"}, {"measurement": "Relative change (% from baseline) in weekly frequency of moderate to severe VMS, mean", "setting": "10 mg E4 QD per os, week 10", "value": "−70", "unit": "%"}, {"measurement": "Mean change from baseline in weekly frequency of moderate to severe VMS", "setting": "10 mg E4 QD per os, week 11", "value": "−45.90"}, {"measurement": "Relative change (% from baseline) in weekly frequency of moderate to severe VMS, mean", "setting": "10 mg E4 QD per os, week 11", "value": "−70", "unit": "%"}, {"measurement": "Mean change from baseline in weekly frequency of moderate to severe VMS", "setting": "10 mg E4 QD per os, week 12", "value": "−47.21"}, {"measurement": "Relative change (% from baseline) in weekly frequency of moderate to severe VMS, mean", "setting": "10 mg E4 QD per os, week 12", "value": "−72", "unit": "%"}, {"measurement": "Difference with placebo, LS adjusted mean, absolute change in weekly frequency of moderate to severe VMS", "setting": "[1]", "value": "−1.571"}, {"measurement": "Difference with placebo, LS adjusted mean, relative change in weekly frequency of moderate to severe VMS", "setting": "[1]", "value": "−0.05376"}, {"measurement": "Difference with placebo, LS adjusted mean, absolute change in weekly frequency of moderate to severe VMS", "setting": "week 4, without site effect", "value": "−2.222"}, {"measurement": "Difference with placebo, LS adjusted mean, relative change in weekly frequency of moderate to severe VMS", "setting": "week 4, without site effect", "value": "−0.06517"}, {"measurement": "Difference with placebo, LS adjusted mean, absolute change in weekly frequency of moderate to severe VMS", "setting": "[2]", "value": "−2.103"}, {"measurement": "Difference with placebo, LS adjusted mean, relative change in weekly frequency of moderate to severe VMS", "setting": "[2]", "value": "−0.05804"}, {"measurement": "Difference with placebo, LS adjusted mean, absolute change in weekly frequency of moderate to severe VMS", "setting": "week 12, without site effect", "value": "−2.603"}, {"measurement": "Difference with placebo, LS adjusted mean, relative change in weekly frequency of moderate to severe VMS", "setting": "week 12, without site effect", "value": "−0.06624"}, {"measurement": "Differences with placebo (including ineffective doses 2.5 mg and 5 mg), relative change in weekly frequency of moderate to severe VMS, LS adjusted mean", "setting": "week 4", "value": "−0.07645"}, {"measurement": "Differences with placebo (including ineffective doses 2.5 mg and 5 mg), relative change in weekly frequency of moderate to severe VMS, p_value", "setting": "week 4", "value": 0.2615}, {"measurement": "Differences with placebo (including ineffective doses 2.5 mg and 5 mg), relative change in weekly frequency of moderate to severe VMS, LS adjusted mean", "setting": "week 12", "value": "−0.08276"}, {"measurement": "Differences with placebo (including ineffective doses 2.5 mg and 5 mg), relative change in weekly frequency of moderate to severe VMS, p_value", "setting": "week 12", "value": 0.1798}, {"measurement": "Relative change (% from baseline) in weekly frequency of moderate to severe VMS, mean", "setting": "10 mg, Week 12", "value": "−72", "unit": "%"}, {"measurement": "Relative change (% from baseline) in weekly frequency of moderate to severe VMS, mean", "setting": "10 mg, week 0", "value": 0, "unit": "%"}, {"measurement": "Relative change (% from baseline) in weekly frequency of moderate to severe VMS, mean", "setting": "10 mg, week 1", "value": "−21", "unit": "%"}, {"measurement": "Relative change (% from baseline) in weekly frequency of moderate to severe VMS, mean", "setting": "10 mg, week 2", "value": "−37", "unit": "%"}, {"measurement": "Relative change (% from baseline) in weekly frequency of moderate to severe VMS, mean", "setting": "10 mg, week 3", "value": "−48", "unit": "%"}, {"measurement": "Relative change (% from baseline) in weekly frequency of moderate to severe VMS, mean", "setting": "10 mg, week 4", "value": "−55", "unit": "%"}, {"measurement": "Relative change in weekly frequency of moderate to severe VMS, LS adjusted mean", "setting": "10 mg, week 4", "value": "−0.5442"}, {"measurement": "Relative change (% from baseline) in weekly frequency of moderate to severe VMS, mean", "setting": "10 mg, week 5", "value": "−60", "unit": "%"}, {"measurement": "Relative change (% from baseline) in weekly frequency of moderate to severe VMS, mean", "setting": "10 mg, week 6", "value": "−65", "unit": "%"}, {"measurement": "Relative change (% from baseline) in weekly frequency of moderate to severe VMS, mean", "setting": "10 mg, week 7", "value": "−66", "unit": "%"}, {"measurement": "Relative change (% from baseline) in weekly frequency of moderate to severe VMS, mean", "setting": "10 mg, week 8", "value": "−68", "unit": "%"}, {"measurement": "Relative change (% from baseline) in weekly frequency of moderate to severe VMS, mean", "setting": "10 mg, week 9", "value": "−69", "unit": "%"}, {"measurement": "Relative change (% from baseline) in weekly frequency of moderate to severe VMS, mean", "setting": "10 mg, week 10", "value": "−70", "unit": "%"}, {"measurement": "Relative change (% from baseline) in weekly frequency of moderate to severe VMS, mean", "setting": "10 mg, week 11", "value": "−70", "unit": "%"}, {"measurement": "Relative change in weekly frequency of moderate to severe VMS, LS adjusted mean", "setting": "10 mg, week 12", "value": "−0.7008"}, {"measurement": "LS adjusted mean change from baseline in weekly frequency of moderate to severe VMS", "setting": "[1]", "value": "−43.6"}, {"measurement": "LS adjusted mean relative change (%) from baseline in weekly frequency of moderate to severe VMS", "setting": "[1]", "value": -64.7, "unit": "%"}, {"measurement": "LS adjusted mean change from baseline in weekly frequency of moderate to severe VMS", "setting": "week 4, without site effect", "value": "−44.36"}, {"measurement": "LS adjusted mean relative change (%) from baseline in weekly frequency of moderate to severe VMS", "setting": "week 4, without site effect", "value": -66, "unit": "%"}, {"measurement": "LS adjusted mean change from baseline in weekly frequency of moderate to severe VMS", "setting": "[2]", "value": "−53.83"}, {"measurement": "LS adjusted mean relative change (%) from baseline in weekly frequency of moderate to severe VMS", "setting": "[2]", "value": -80.1, "unit": "%"}, {"measurement": "LS adjusted mean change from baseline in weekly frequency of moderate to severe VMS", "setting": "week 12, without site effect", "value": "−54.91"}, {"measurement": "LS adjusted mean relative change (%) from baseline in weekly frequency of moderate to severe VMS", "setting": "week 12, without site effect", "value": -82.3, "unit": "%"}, {"measurement": "Mean change from baseline in weekly frequency of moderate to severe VMS", "setting": "15 mg E4 QD per os, week 1", "value": "−14.86"}, {"measurement": "Relative change (% from baseline) in weekly frequency of moderate to severe VMS, mean", "setting": "15 mg E4 QD per os, week 1", "value": "−22", "unit": "%"}, {"measurement": "Mean change from baseline in weekly frequency of moderate to severe VMS", "setting": "15 mg E4 QD per os, week 2", "value": "−29.19"}, {"measurement": "Relative change (% from baseline) in weekly frequency of moderate to severe VMS, mean", "setting": "15 mg E4 QD per os, week 2", "value": "−46", "unit": "%"}, {"measurement": "Mean change from baseline in weekly frequency of moderate to severe VMS", "setting": "15 mg E4 QD per os, week 3", "value": "−36.30"}, {"measurement": "Relative change (% from baseline) in weekly frequency of moderate to severe VMS, mean", "setting": "15 mg E4 QD per os, week 3", "value": "−57", "unit": "%"}]}]}
